Measurements as given in US20170304195A1, “PHARMACEUTICAL FORMULATIONS FOR THE ORAL DELIVERY OF PEPTIDE OR PROTEIN DRUGS” (Cyprumed GmbH, priority 2014, published 2017).
Structures can show the parent of a compound that is named as a salt. Blank lines part the entries; values can stand above or below the compound they belong to.

Experiments:
[1] = In vitro compatibility of absorption enhancers with zinc sulfate (Example 16); format: physicochemical; conditions: absorption enhancer 10 mg/ml with desmopressin acetate and ZnSO4 5 mg/ml, in 2 ml aqua purificata, visual examination
Description: Solid dry powder mixtures of desmopressin acetate, zinc sulfate and different absorption enhancers were prepared and dissolved in 2 ml aqua purificata.

[2] = pH of dissolved solid powder mixtures (Example 17); format: physicochemical; conditions: lactose 50 mg, no buffer
[3] = Compatibility of absorption enhancers with Cu2+ and Cu+ salts (dissolution in aqueous medium); format: physicochemical; conditions: absorption enhancer 10 mg/ml
From the text: Various absorption enhancers were screened regarding their compatibility with the trace element copper in the two main oxidation states as Cu^2+ and Cu^+.

[4] = Plasma liraglutide levels after mid-jejunum administration (Example 6, FIG. 1); format: in vivo, Sprague Dawley rats
Description: FIG. 1: Plasma liraglutide levels after intestinal (mid-jejunum) administration of different liraglutide formulations to rats (see Example 6).
Administration into Mid-Jejunum in Rats:
The wound margins were released from the base.
Dosing was performed slowly.
Correctness of the application was checked.
2.4 mg/kg of the polypeptide liraglutide were dosed into the mid-jejunum of anesthetized Sprague Dawley rats in the presence of the zwitter-ionic absorption enhancer lauroyl carnitine chloride (“LCC”) (20 mg/ml) with and without the addition of (i) the trace element CuSO4 (1 mg/ml) and the reducing agent sodium ascorbate (40 mg/ml) or (ii) the trace element ZnSO4 (1 mg/ml) and the reducing agent glutathione (40 mg/ml). All formulations further comprised Na2HPO4 to result in a neutral pH between 7 to 8.

[5] = background statement, unformulated drug; cited from earlier work
[6] = Octreotide pharmacokinetics after s.c. or ileum administration (Example 9); format: in vivo, Sprague Dawley rats; conditions: for AUC(0-t): read-out: AUC(0-90) (converted)
Description: TRIS buffer was used to generate a neutral pH.
The octreotide plasma concentrations were determined using a commercial octreotide kit (AB Biolabs, USA, cat. number CEK 0110-01).

[7] = Vancomycin pharmacokinetics after i.v. or ileum administration (Example 5); format: in vivo, Sprague Dawley rats; conditions: for AUC(0-t) / Cmax: anesthetized rats
Description: The vancomycin plasma concentrations were determined on biochemical autoanalyser Hitachi 912 using commercial vancomycin kit VANC2 (Roche Diagnostics GmbH, Germany). The absolute bioavailability (F) was calculated using equation F (%)=(AUCileum/AUCi.v.)×(Dosei.v./Doseileum)×100.

[8] = Human growth hormone formulation, pharmacokinetics after s.c. or ileum administration (Example 13); format: in vivo, Sprague Dawley rats
Description: The human growth hormone plasma concentrations were determined using commercial growth hormone sensitive human ELISA kit (Biovendor, EU, cat. number RMEE022).

[9] = CuSO4 1 mg/ml, sodium ascorbate 10 mg/ml
[10] = Sprague Dawley, rat, plasma, other: into distal small intestine (ileum), octreotide 0.92 mg/kg ileum (n = 8), lauroyl carnitine chloride 30 mg/ml, CuSO4 1 mg/ml, sodium ascorbate 30 mg/ml, TRIS 22.5 mg/ml
[11] = Sprague Dawley, rat, plasma, sc, octreotide 1 mg/kg s.c., anesthetized rats (n = 3)
[12] = Cu(I)Cl 1 mg/ml, sodium ascorbate 10 mg/ml
[13] = copper (I) acetate 1 mg/ml, sodium ascorbate 10 mg/ml
[14] = Sprague Dawley, rat, plasma, iv, vancomycin 5 mg/kg i.v.
[15] = Sprague Dawley, rat, plasma, vancomycin 20 mg/kg into ileum, lauroyl carnitine 50 mg/ml, CuSO4 1 mg/ml, sodium ascorbate 250 mg/ml
[16] = s.c. 1 ml/kg, 0.2 mg/ml human growth hormone, anaesthetized rats

Compound: C[C@H](CCC(=O)O)[C@H]1CC[C@H]2[C@@H]3[C@H](O)C[C@@H]4C[C@H](O)CC[C@]4(C)[C@H]3C[C@H](O)[C@]12C [Cholic acid]
Dissolution in aqueous medium (2 ml) [1]: Precipitation

Dissolution pH in 5 ml Aqua purificata ([2]; CuSO4 10 mg, citric acid 10 mg): 2.6
Dissolution pH in 5 ml Aqua purificata ([2]; CuSO4 10 mg, no absorption enhancer): 4.7
Dissolution pH in 5 ml Aqua purificata ([2]; ZnSO4 10 mg, citric acid 10 mg): 2.7
Dissolution pH in 5 ml Aqua purificata ([2]; ZnSO4 10 mg, no absorption enhancer): 5.5
Compound: NC(=O)CC[C@@H]1NC(=O)[C@H](Cc2ccccc2)NC(=O)[C@H](Cc2ccc(O)cc2)NC(=O)CCSSC[C@@H](C(=O)N2CCC[C@H]2C(=O)N[C@H](CCCN=C(N)N)C(=O)NCC(N)=O)NC(=O)[C@H](CC(N)=O)NC1=O [Desmopressin, Desmopressin acetate]

Dissolution in aqueous medium (2 ml) [1]: Clear solution
Dissolution in aqueous medium (2 ml) [3, 9]: Clear solution
Compound: O=C(O)CN(CCN(CC(=O)O)CC(=O)O)CC(=O)O [EDTA, ethylenediaminetetraacetic acid]

Compound: CCCCCCCCCCCC(=O)OC(CC(=O)O)C[N+](C)(C)C.[Cl-] (stereo not drawn) [Lauroyl carnitine HCl]
Dissolution in aqueous medium (2 ml) [1]: Clear solution

Compound: CCCCCCCCCCCC(=O)OC(CC(=O)O)C[N+](C)(C)C.[Cl-] (stereo not drawn) [Lauroyl carnitine]
Dissolution in aqueous medium (2 ml) ([3]; CuSO4 1 mg/ml, glutathione 10 mg/ml): Clear solution
Dissolution in aqueous medium (2 ml) [3, 9]: Clear solution

Compound: CCCCCCCCCCCCCCCC(=O)N[C@@H](CCC(=O)NCCCC[C@H](NC(=O)[C@H](C)NC(=O)[C@H](C)NC(=O)[C@H](CCC(N)=O)NC(=O)CNC(=O)[C@H](CCC(=O)O)NC(=O)[C@H](CC(C)C)NC(=O)[C@H](Cc1ccc(O)cc1)NC(=O)[C@H](CO)NC(=O)[C@H](CO)NC(=O)[C@@H](NC(=O)[C@H](CC(=O)O)NC(=O)[C@H](CO)NC(=O)[C@@H](NC(=O)[C@H](Cc1ccccc1)NC(=O)[C@@H](NC(=O)CNC(=O)[C@H](CCC(=O)O)NC(=O)[C@H](C)NC(=O)[C@@H](N)Cc1cnc[nH]1)[C@@H](C)O)[C@@H](C)O)C(C)C)C(=O)N[C@@H](CCC(=O)O)C(=O)N[C@@H](Cc1ccccc1)C(=O)N[C@H](C(=O)N[C@@H](C)C(=O)N[C@@H](Cc1c[nH]c2ccccc12)C(=O)N[C@@H](CC(C)C)C(=O)N[C@H](C(=O)N[C@@H](CCCNC(=N)N)C(=O)NCC(=O)N[C@@H](CCCNC(=N)N)C(=O)NCC(=O)O)C(C)C)[C@@H](C)CC)C(=O)O [Liraglutide, liraglutide]
intestinal absorption of liraglutide (plasma levels, FIG. 1), in words ([4]; LCC 20 mg/ml + CuSO4 1 mg/ml + sodium ascorbate 40 mg/ml, compared with LCC alone): substantially increased the intestinal absorption
liraglutide absorption (plasma levels, FIG. 1), in words ([4]; LCC 20 mg/ml + ZnSO4 1 mg/ml + glutathione 40 mg/ml, compared with LCC alone and with the Cu2+ composition): improved liraglutide absorption albeit less pronounced

Compound: C[C@@H](O)[C@@H]1NC(=O)[C@H](CCCCN)NC(=O)[C@@H](Cc2c[nH]c3ccccc23)NC(=O)[C@H](Cc2ccccc2)NC(=O)[C@@H](NC(=O)[C@H](N)Cc2ccccc2)CSSC[C@@H](C(=O)N[C@H](CO)[C@@H](C)O)NC1=O [Octreotide]
oral bioavailability [5]: less than 1%
Cmax [6, 10]: 25.8 ± 14.2 ng/mL
AUC(0-t) [6, 10]: 25.1 ng·h/mL
Cmax [6, 11]: 154 ± 29.8 ng/mL
AUC(0-t) [6, 11]: 167 ng·h/mL
F rel ([6]; Sprague Dawley, rat, plasma, octreotide 0.92 mg/kg ileum, lauroyl carnitine chloride 30 mg/ml, CuSO4 1 mg/ml, sodium ascorbate 30 mg/ml, TRIS 22.5 mg/ml, vs s.c.): 16.3 ± 7.8%
F ([6]; octreotide 1 mg/kg s.c. (reference)): 100 ± 18.3%
bioavailability, in words ([6]; octreotide formulation with copper(II) salt, sodium ascorbate, lauroyl carnitine chloride): markedly increased bioavailability

Dissolution in aqueous medium (2 ml) [1]: Precipitation
Dissolution in aqueous medium (2 ml) [3, 12]: Clear solution
Dissolution in aqueous medium (2 ml) [3, 9]: Precipitation
Dissolution in aqueous medium (2 ml) [3, 13]: Clear solution
Compound: CCCCCCCCCC(=O)[O-].[Na+] [Sodium caprate]

Dissolution in aqueous medium (2 ml) [1]: Precipitation
Dissolution in aqueous medium (2 ml) [3, 12]: Clear solution
Dissolution in aqueous medium (2 ml) [3, 9]: Precipitation
Dissolution in aqueous medium (2 ml) [3, 13]: Clear solution
Compound: CCCCCCCC(=O)[O-].[Na+] [Sodium caprylate]

Compound: C[C@H](CCC(=O)[O-])[C@H]1CC[C@H]2[C@@H]3[C@H](O)C[C@@H]4C[C@H](O)CC[C@]4(C)[C@H]3C[C@H](O)[C@]12C.[Na+] [Sodium cholate]
Dissolution in aqueous medium (2 ml) [1]: Precipitation

Compound: O=C([O-])CC(O)(CC(=O)[O-])C(=O)[O-].[Na+].[Na+].[Na+] [Sodium citrate]
Dissolution in aqueous medium (2 ml) [3, 9]: Clear solution

Dissolution in aqueous medium (2 ml) [1]: Clear solution
Dissolution in aqueous medium (2 ml) [3, 9]: Clear solution
Compound: CCCCCCCCCCCCOS(=O)(=O)[O-].[Na+] [Sodium dodecyl sulfate]

Compound: O=C([O-])c1ccccc1O.[Na+] [Sodium salicylate]
Dissolution in aqueous medium (2 ml) [3, 9]: Clear solution

Compound: CN[C@H](CC(C)C)C(=O)N[C@H]1C(=O)N[C@@H](CC(N)=O)C(=O)N[C@H]2C(=O)N[C@H]3C(=O)N[C@H](C(=O)N[C@H](C(=O)O)c4cc(O)cc(O)c4-c4cc3ccc4O)[C@H](O)c3ccc(c(Cl)c3)Oc3cc2cc(c3O[C@@H]2O[C@H](CO)[C@@H](O)[C@H](O)[C@H]2O[C@H]2C[C@](C)(N)[C@H](O)[C@H](C)O2)Oc2ccc(cc2Cl)[C@H]1O [Vancomycin, Vancomycin hydrochloride]
oral bioavailability [5]: ~0.1%
AUC(0-t) [7, 14]: 11000 ng·h/mL
Cmax [7, 14]: 8800 ± 300 ng/mL
AUC(0-t) [7, 15]: 3000 ng·h/mL
Cmax [7, 15]: 2400 ± 200 ng/mL
bioavailability ([7]; Sprague Dawley, rat, plasma, vancomycin 20 mg/kg into ileum, lauroyl carnitine 50 mg/ml, CuSO4 1 mg/ml, sodium ascorbate 250 mg/ml, vs i.v., read-out: F (absolute bioavailability)): 8 ± 0.4%
F ([7]; vancomycin 5 mg/kg i.v. (reference)): 100 ± 7%
bioavailability in comparison with published F values after oral administration, in words ([7]; vancomycin formulation with lauroyl carnitine, CuSO4, sodium ascorbate): increased markedly its bioavailability

Dissolution in aqueous medium (2 ml) [1]: Clear solution
Dissolution in aqueous medium (2 ml) [3, 9]: Clear solution
Compound: CCCCCCCCCCCCO[C@@H]1O[C@H](CO)[C@@H](O[C@H]2O[C@H](CO)[C@@H](O)[C@H](O)[C@H]2O)[C@H](O)[C@H]1O [n-Dodecyl-beta-D-maltoside]

Dissolution in aqueous medium (2 ml) [1]: Clear solution
Dissolution in aqueous medium (2 ml) [3, 9]: Clear solution
Compound: CCCCCCCCO[C@@H]1O[C@H](CO)[C@@H](O)[C@H](O)[C@H]1O [n-Octyl-beta-D-glucopyranoside]

Compound: Human growth hormone [hGH]
AUC(0-t) [8, 16]: 7630 ± 471 ng·min/mL
Cmax [8, 16]: 44 ng/mL
Tmax [8, 16]: 30 min
F ([8]; s.c. (reference)): 100 ± 6%

Dissolution in aqueous medium (2 ml) [3, 9]: Clear solution
Compound: Methyl-beta-cyclodextrin

Dissolution in aqueous medium (2 ml) [3, 9]: Precipitation
Compound: Sodium lauroyl sarcosinate
